Each structure is given as a SMILES string.

The test system of the assay is AMPK. Kind of assay: AMPK activation potential, cell based ELISA (Phospho-AMPKα Thr172) in Hep G2 cells. As to conditions: 10 nm concentration; Hep G2 liver cells; % activity with DMSO control as 100%; 30 min incubation for Epicatechin analogs. The method, then:
Testing of Compounds for Their AMPK Activation Potential
AMPK activation potential of the compounds was evaluated using cell based ELISA. Hepatoma (Hep G2) liver cells were maintained in a T 75 culture flask-containing 25 mM DMEM+10% fetal calf serum. The cells were maintained in a T 75 culture flask-containing medium (DMEM+10% fetal calf serum). On reaching a confluence of 70 to 80%, the cells were seeded in a 96 well plate at a density of 40,000 cells per well in 25 mM DMEM+10% FCS medium. The plates were then incubated at 37° C. with 5% CO2 for 24 hours. Various concentrations of drugs were prepared in DMSO and diluted to required concentration with the medium and incubated at 37° C. with 5% CO2 for 30 min and 1 h for Epicatechin analogs and 11-BHP analogs respectively. Metformin was used as positive control. Cells were fixed with 4% formaldehyde for 30 minutes at room temperature and washed three times with PBS containing 0.1% Triton X-100. Endogenous peroxidase was quenched with 1% H2O2 in PBS-T (0.1% Tween 20) for 30 minutes and washed three times in PBS-T. Cells were blocked with 1% BSA in PBS-T for 1 hour. The cells were incubated with 1:1000 dilution primary antibody (Phospho-AMPKα (Thr172) Rabbit mAb, Cell Signaling in PBS-T containing 5% BSA at 4° C. overnight. The cells were then washed three times with PBS-T for 5 minutes and incubated with 1:1000 dilution secondary antibody (Anti-rabbit IgG, HRP-linked Antibody, Cell Signaling) in PBS-T with 1% BSA for 1 hour at RT. Cells were washed three times with PBS-T for 5 minutes The cells were incubated with 100 μl TMB substrate solution for 30 minutes and the reaction was stopped with 100 μl of 2N H2SO4. Then the plate was read at 450 nm using ELISA plate reader and absorbance recorded. % activity was calculated using DMSO control as 100%. All compounds of the present invention, as exemplified and encompassed are found to be active.
Background: In an ELISA, binding on a coated surface is turned into a signal by an enzyme label.
On to `Oc1ccc([C@H]2Oc3ccccc3C[C@H]2O)cc1O` (racemic) [Compound 1002, Cis (±) 3-hydroxychroman-2-yl)benzene-1,2-diol], for which the “% pAMPK(at 10 nm)” value is 108%.
In the case of `Oc1ccc([C@H]2Oc3cc(O)ccc3C[C@H]2O)cc1` (racemic) [Compound 1004, Cis (±) 2-(4-hydroxyphenyl)chroman-3,7-diol], the “% pAMPK(at 10 nm)” value is 114%.
On to `Oc1cccc([C@H]2Oc3cccc(O)c3C[C@H]2O)c1` (racemic) [Compound 1005, Cis (±) 2-(3-hydroxyphenyl)chroman-3,5-diol], for which the “% pAMPK(at 10 nm)” value is listed as 102%.
Take `Oc1ccc([C@H]2Oc3cccc(O)c3C[C@H]2O)cc1` (racemic) [Compound 1006, Cis (±) 2-(4-hydroxyphenyl)chroman-3,5-diol]: the “% pAMPK(at 10 nm)” value is recorded as 103%.
The figure for `Oc1cccc([C@H]2Oc3cc(O)ccc3C[C@H]2O)c1` (racemic) [Compound 1007, Cis (±) 2-(3-hydroxyphenyl)chroman-3,7-diol] is 113%; for `Oc1ccc([C@H]2Oc3cc(O)cc(O)c3C[C@H]2O)cc1` (racemic) [Compound 1008, Cis (±) 2-(4-hydroxyphenyl)chroman-3,5,7-triol] it is 103%; for `Oc1cc(O)c2c(c1)O[C@H](c1ccccc1)[C@H](O)C2` (racemic) [Compound 1015, Cis (±) 2-phenylchroman-3,5,7-triol] it is 119%.
The figure for `COc1cccc([C@H]2Oc3cc(O)ccc3C[C@H]2O)c1` (racemic) [Compound 1017] is 110%; for `COc1ccc2c(c1)O[C@H](c1cccc(O)c1)[C@H](O)C2` (racemic) [Compound 1018] it is 100%.
`COc1cccc([C@H]2Oc3cc(OC)ccc3C[C@H]2O)c1` (racemic) [Compound 1019]: the “% pAMPK(at 10 nm)” value stood at 101%.
Regarding `Cc1c([C@H]2Oc3cc(O)cc(O)c3C[C@H]2O)ccc(O)c1O` (racemic) [Compound 1031, Cis (±) 2-(3,4-dihydroxy-2-methylphenyl)chroman-3,5,7-triol], the “% pAMPK(at 10 nm)” value came to 101%.
The same measure for `Oc1cc(O)c2c(c1)O[C@H](c1ccc(O)c(O)c1F)[C@H](O)C2` (racemic) [Compound 1032, Cis (±) 2-(2-fluoro-3,4-dihydroxyphenyl)chroman-3,5,7-triol]: 104%.
On to `Oc1cc(O)c2c(c1)O[C@H](c1cc(O)c(O)cc1F)[C@H](O)C2` (racemic) [Compound 1033, Cis (±) 2-(2-fluoro-4,5-dihydroxyphenyl)chromane-3,5,7-triol], for which the “% pAMPK(at 10 nm)” value was determined as 107%.
Consider `Oc1cc(O)c2c(c1)O[C@H](c1ccc(O)c(F)c1)[C@H](O)C2` (racemic) [Compound 1034, Cis (±) 2-(3-fluoro-4-hydroxyphenyl)chromane-3,5,7-triol], for which the “% pAMPK(at 10 nm)” value stood at 107%.
As for `Cc1cc([C@H]2Oc3cc(O)cc(O)c3C[C@H]2O)cc(O)c1O` (racemic) [Compound 1035, Cis (±) (2-(3,4-dihydroxy-5-methylphenyl)chromane-3,5,7-triol], the “% pAMPK(at 10 nm)” value came out at 102%.
With `COc1cc([C@H]2Oc3cc(O)ccc3C[C@H]2O)ccc1C` (stereo in doubt) [Compound 1026, 2-(3-methoxy-4-methylphenyl)chromane-3,7-diol], the “% pAMPK(at 10 nm)” value amounted to 101%.
With `Cc1ccc([C@H]2Oc3cc(O)ccc3C[C@H]2O)cc1O` (stereo in doubt) [Compound 1027, 2-(3-hydroxy-4-methylphenyl)chromane-3,7-diol], the “% pAMPK(at 10 nm)” value came out at 94%.
For `COc1cc(C2Oc3cc(O)ccc3C[C@H]2O)ccc1F` (stereo in doubt) [Compound 1028, 2-(4-fluoro-3-methoxyphenyl)chromane-3,7-diol], the “% pAMPK(at 10 nm)” value is on record as 101%.
Regarding `Oc1ccc2c(c1)OC(c1ccc(F)c(O)c1)[C@H](O)C2` (stereo in doubt) [Compound 1029, 2-(4-fluoro-3-hydroxyphenyl)chromane-3,7-diol], the “% pAMPK(at 10 nm)” value was 93%.
Take `CCCO[C@@H]1Cc2ccc(O)cc2OC1c1cccc(O)c1` (stereo in doubt) [Compound 1030, 2-(3-hydroxyphenyl)-3-propoxychroman-7-ol]: the “% pAMPK(at 10 nm)” value turned out to be 94%.
With `[2H]C1([2H])c2c(O)cc(O)cc2O[C@H](c2ccc(O)c(O)c2)[C@@H]1O` [Compound 1036, (2R,3R)-2-(3,4-dihydroxyphenyl)chromane-4,4-d2-3,5,7-triol], the “% pAMPK(at 10 nm)” value is given as 105%.
For the compound `[2H][C@]1(c2ccc(O)c(O)c2)Oc2cc(O)cc(O)c2C[C@H]1O` [Compound 1037, (2R,3R)-2-(3,4-dihydroxyphenyl)chromane-2-d-3,5,7-triol], the “% pAMPK(at 10 nm)” value is reported as 110%.
Regarding `C[n+]1cccc(C(=O)O[C@@H]2Cc3c(O)cc(O)cc3O[C@@H]2c2ccc(O)c(O)c2)c1` [Compound 1041, 3-((((2R,3R)-2-(3,4-dihydroxyphenyl)-5,7-dihydroxychroman-3-yl)oxy)carbonyl)-1-methylpyridin-1-ium], the “% pAMPK(at 10 nm)” value was 88%.
`CC(C)(C)COC(=O)Oc1cc([C@H]2Oc3cc(O)cc(O)c3C[C@H]2O)ccc1O` [Compound 1042, 2-hydroxy-5-((2R,3R)-3,5,7-trihydroxychroman-2-yl)phenyl neopentyl carbonate]: the “% pAMPK(at 10 nm)” value turned out to be 95%.
In the case of `CCCCCCCC(=O)Oc1ccc([C@H]2Oc3cc(O)cc(O)c3C[C@H]2O)cc1O` [Compound 1043, 2-hydroxy-4-((2R,3R)-3,5,7-trihydroxychroman-2-yl)phenyl octanoate], the “% pAMPK(at 10 nm)” value came to 98%.
On to `CC(C)NC(=O)Oc1ccc([C@H]2Oc3cc(O)cc(O)c3C[C@H]2O)cc1OC(=O)NC(C)C` [Compound 1044, 4-((2R,3R)-3,5,7-trihydroxychroman-2-yl)-1,2-phenylene bis(isopropylcarbamate)], for which the “% pAMPK(at 10 nm)” value worked out at 96%.
The same measure for `CC(C)(C)COC(=O)O[C@@H]1Cc2c(O)cc(O)cc2O[C@@H]1c1ccc(O)c(O)c1` [Compound 1045, (2R,3R)-2-(3,4-dihydroxyphenyl)-5,7-dihydroxychroman-3-yl neopentyl carbonate]: 105%; for `CC(C)NC(=O)O[C@@H]1Cc2c(O)cc(O)cc2O[C@@H]1c1ccc(O)c(O)c1` [Compound 1046, (2R,3R)-2-(3,4-dihydroxyphenyl)-5,7-dihydroxychroman-3-yl isopropylcarbamate]: 101%; for `CN(C)C(=O)O[C@@H]1Cc2c(O)cc(O)cc2O[C@@H]1c1ccc(O)c(O)c1` [Compound 1047, (2R,3R)-2-(3,4-dihydroxyphenyl)-5,7-dihydroxychroman-3-yl dimethylcarbamate]: 100%.
The same measure for `O=C(OCc1ccccc1)Oc1ccc([C@H]2Oc3cc(O)cc(O)c3C[C@H]2O)cc1OC(=O)OCc1ccccc1` [Compound 1048, dibenzyl (4-((2R,3R)-3,5,7-trihydroxychroman-2-yl)-1,2-phenylene) bis(carbonate)]: 103%; for `COC(=O)Oc1ccc([C@H]2Oc3cc(O)cc(O)c3C[C@H]2O)cc1OC(=O)OC` [Compound 1049, dimethyl (4-((2R,3R)-3,5,7-trihydroxychroman-2-yl)-1,2-phenylene) bis(carbonate)]: 105%.
Regarding `CC(C)COC(=O)Oc1cc(OC(=O)OCC(C)C)c2c(c1)O[C@H](c1ccc(O)c(O)c1)[C@H](O)C2` [Compound 1050, (2R,3R)-2-(3,4-dihydroxyphenyl)-3-hydroxychromane-5,7-diyl diisobutyl bis(carbonate)], the “% pAMPK(at 10 nm)” value amounted to 91%.
As for `O=C(NCc1ccccc1)Oc1cc(OC(=O)NCc2ccccc2)c2c(c1)O[C@H](c1ccc(OC(=O)NCc3ccccc3)c(OC(=O)NCc3ccccc3)c1)[C@H](O)C2` [Compound 1051, 4-((2R,3R)-5,7-bis((benzylcarbamoyl)oxy)-3-hydroxychroman-2-yl)-1,2-phenylene bis(benzylcarbamate)], the “% pAMPK(at 10 nm)” value is recorded as 85%.
Regarding `O=C(OCc1ccccc1)Oc1cc(OC(=O)OCc2ccccc2)c2c(c1)O[C@H](c1ccc(OC(=O)OCc3ccccc3)c(OC(=O)OCc3ccccc3)c1)[C@H](O)C2` [Compound 1052, dibenzyl (4-((2R,3R)-5,7-bis(((benzyloxy)carbonyl)oxy)-3-hydroxychroman-2-yl)-1,2-phenylene) bis(carbonate)], the “% pAMPK(at 10 nm)” value is 103%.
The same measure for `CCOC(=O)O[C@@H]1Cc2c(O)cc(O)cc2O[C@@H]1c1ccc(O)c(O)c1` [Compound 1053, (2R,3R)-2-(3,4-dihydroxyphenyl)-5,7-dihydroxychroman-3-yl ethyl carbonate]: 94%.
Consider `CC(C)OC(=O)O[C@@H]1Cc2c(O)cc(O)cc2O[C@@H]1c1ccc(O)c(O)c1` [Compound 1055, (2R,3R)-2-(3,4-dihydroxyphenyl)-5,7-dihydroxychroman-3-yl isopropyl carbonate], for which the “% pAMPK(at 10 nm)” value stood at 105%.

For the origin of these results see patent US9975869B2 (Sphaera Pharma Pvt. Ltd., priority 2013, dated 2018).
